Reference: paper PMC8000724, “Trans-Epithelial Transport, Metabolism, and Biological Activity Assessment of the Multi-Target Lupin Peptide [sequence] (P5) and Its Metabolite [sequence] (P5-Met)” (Nutrients, 2021)
pIC50: −log10 of the molar value. No end group written: not given here.

Columns and labels:
[1] = biological target: T1, HMGCoAR (catalytic domain) (Homo sapiens, UniProt P04035); test: HMGCoAR activity assay; format: biochemical
T1 construct: finally the HMGCoAR (catalytic domain) (2 µL); purchased Sigma-Aldrich
T1 sequence (P04035 340-888 limits assumed): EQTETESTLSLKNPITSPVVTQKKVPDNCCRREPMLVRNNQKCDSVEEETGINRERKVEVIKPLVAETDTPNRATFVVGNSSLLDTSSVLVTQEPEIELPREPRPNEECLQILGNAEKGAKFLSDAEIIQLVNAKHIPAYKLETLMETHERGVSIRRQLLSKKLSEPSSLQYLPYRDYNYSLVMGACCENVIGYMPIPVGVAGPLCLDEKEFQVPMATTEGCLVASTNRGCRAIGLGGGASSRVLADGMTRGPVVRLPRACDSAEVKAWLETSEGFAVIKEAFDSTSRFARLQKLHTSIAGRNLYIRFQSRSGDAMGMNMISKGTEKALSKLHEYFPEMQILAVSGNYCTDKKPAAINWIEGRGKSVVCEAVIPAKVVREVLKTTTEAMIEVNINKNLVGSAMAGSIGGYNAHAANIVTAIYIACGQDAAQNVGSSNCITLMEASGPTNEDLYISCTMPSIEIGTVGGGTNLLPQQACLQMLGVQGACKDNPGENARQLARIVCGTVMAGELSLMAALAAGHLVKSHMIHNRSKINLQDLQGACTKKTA
Protocol: The experiments were carried out following the manufacturer instructions and optimized protocol. The assay buffer, NADPH, substrate solution, and HMGCoAR were provided in the HMGCoAR Assay Kit (Sigma Aldrich SRL, Milan, Italy). The experiments were carried out following the manufacturer instructions at 37 °C. In particular, each reaction (200 µL) was prepared adding the reagents in the following order: 1× assay buffer, a 10–500 µM doses of P5 and P5-met or vehicle (C), the NADPH (4 µL), the substrate solution (12 µL), and finally the HMGCoAR (catalytic domain) (2 µL). Subsequently, the samples were mixed and the absorbance at 340 nm read by the microplate reader Synergy H1 (Winooski, VT, USA) at time 0 and 10 min. The HMGCoAR-dependent oxidation of NADPH and the inhibition properties of peptides were measured by absorbance reduction, which is directly proportional to enzyme activity.

[2] = tested on: differentiated Caco-2 cells (AP membrane peptidases); test: Metabolites of P5 produced by Caco-2 cell peptidases, MS analysis of AP solutions; format: in vitro ADME, human; design: key to Metabolite of P5 identified in the AP compartment: Mixture / Metabolite of P5 identified in the AP compartment: Alone: x, detected; n.d., not detected; conditions: P5 incubated in mixture with P3 and P7 (500 μM each), Caco-2, end of incubation 120 min
Protocol: (§1) Prior to experiments, the cell monolayer integrity and differentiation were checked by TEER measurement as described in detail above. Peptide trans-epithelial passage was assayed in differentiated Caco-2 cells in transport buffer solution (137 mM NaCl, 5.36 mM KCl, 1.26 mM CaCl2, and 1.1 mM MgCl2, 5.5 mM glucose) according to previously described conditions. In order to reproduce the pH conditions existing in vivo in the small intestinal mucosa, the apical (AP) solutions were maintained at pH 6.0 (buffered with 10 mM morpholinoethane sulfonic acid), and the basolateral (BL)solutions were maintained at pH 7.4 (buffered with 10 mM […]). Prior to transport experiments, cells were washed twice with 500 µL PBS containing Ca^++ and Mg^++. Peptide transportation by mature Caco-2 cells was assayed by loading the AP compartment with P5 alone, in mixture with […] (P3) and […] (P7), and/or P5-met (500 μM) in the AP transport solution (500 µL) and the BL compartment with the BL transport solution (700 µL). The plates were incubated at 37 °C and the BL solutions were collected at different time points (i.e., 15, 30, 60, 90, and 120 min) and replaced with fresh solutions pre-warmed at 37 °C. All BL and AP solutions collected at the end of the transport experiment were stored at −80 °C prior to analysis. Three independent transport experiments were performed, each in duplicate. In order to assess the involvement of transcytotic process in peptides passage, parallel transport experiments were performed in the presence of 500 nM wortmannin in both the AP and BL compartment, over 60 min incubation time.
The medium collected at the end of transport experiments from AP and BL chambers (500 µL and 700 µL, respectively) were freeze-dried and residues were solubilized in HPLC water (100 µL). Samples were desalted with C18 resin ZipTip by using 80% ACN, 0.1% FA as eluent (Millipore Corporation, Bedford, MA, USA). Each sample was lyophilized under speed-vacuum for 5 h at 30°C and re-dissolved in 50 μL (0.1% formic acid), before MS analysis. Purified BL samples were analyzed on a SL IT mass spectrometer interfaced with a HPLC- Chip Cube source (Agilent Technologies, Palo Alto, CA, USA). Data were processed with MSD Trap control 4.2, and Data analysis 4.2 version (Agilent Technologies, Palo Alto, CA, USA). The chromatographic separation was performed using a 1200 HPLC system equipped with a binary pump. […] Specifically, The monitored MRM transitions of P5-met were from the mono-charged precursor ion [M^+H]^+ (m/z 882.43) to product-ions m/z 678.3 and 407.1, respectively. […]

[3] = tested on: differentiated Caco-2 cells; test: Trans-epithelial transport across differentiated Caco-2 cell monolayer; format: in vitro ADME, human
Protocol: Human intestinal Caco-2 cells, obtained from INSERM (Paris, France), where cultured according to a published protocol. For differentiation, they were seeded on polycarbonate filters, 12 mm diameter, 0.4 µm pore diameter (Transwell, Corning Inc., Lowell, MA, US) at a 3.5 × 10^5 cells/cm^2 density in complete medium supplemented with 10% FBS in both AP and BL compartments for 2 d to allow the formation of a confluent cell monolayer. Starting from day three after seeding, cells were transferred to FBS-free medium in both compartments, supplemented with ITS (final concentration 10 mg/L insulin (I), 5.5 mg/L transferrin (T), 6.7 μg/L sodium selenite (S); GIBCO-Invitrogen, San Giuliano Milanese, Italy) only in the basolateral (BL) compartment, and allowed to differentiate for 18–21 days with regular medium changes three times weekly.
The transepithelial electrical resistance (TEER) of differentiated Caco-2 cells was measured at 37 °C using the voltmeter apparatus Millicell (Millipore Co., Billerica, MA, USA), immediately before and at the end of the transport experiments. In addition, at the end of transport experiments, cells were incubated from the AP side with 1 mM phenol-red in PBS containing Ca^++ (0.9 mM) and Mg^++ (0.5 mM) for 1 h at 37 °C, to monitor the paracellular permeability of the cell monolayer. The BL solutions were then collected and NaOH (70 µL, 0.1 N) was added before reading the absorbance at 560 nm by a microplate reader Synergy H1 from Biotek (Winooski, VT, USA). Phenol-red passage was quantified using a standard phenol-red curve. Only filters showing TEER values and phenol red passages similar to untreated control cells were considered for peptide transport analysis.
as §1
The medium collected at the end of transport experiments from AP and BL chambers (500 µL and 700 µL, respectively) were freeze-dried and residues were solubilized in HPLC water (100 µL). Samples were desalted with C18 resin ZipTip by using 80% ACN, 0.1% FA as eluent (Millipore Corporation, Bedford, MA, USA). Each sample was lyophilized under speed-vacuum for 5 h at 30°C and re-dissolved in 50 μL (0.1% formic acid), before MS analysis. Purified BL samples were analyzed on a SL IT mass spectrometer interfaced with a HPLC- Chip Cube source (Agilent Technologies, Palo Alto, CA, USA). […]

`CC[C@H](C)C(=O)O[C@H]1C[C@H](O)C=C2C=C[C@H](C)[C@H](CC[C@@H](O)C[C@@H](O)CC(=O)O)[C@H]21` [pravastatin, reference compound] was tested, and the “Reduction of HMGCoAR enzyme activity” value ([1]; 1.0 µM, positive control) was 82.0%.

In the case of “ILPKHSDAD [Peptide P5-frag, minor metabolite of P5, loss of the N-terminal leucine]”, the “Metabolite of P5 identified in the AP compartment: Mixture” value [2] was “x”.

In the case of LILPKHSDAD [Peptide P5], the pIC50 ([1]; 10-500 µM peptide, 37 °C, NADPH absorbance 340 nm at 0 and 10 min) was 3.83, the “Effect of the transcytosis inhibitor wortmannin on transport across Caco-2 cells” value ([3]; 500 nM wortmannin in AP and BL compartments, 60 min, HPLC-Chip MS of BL compartment) was “significantly impairs the transport” and the “Amount in BL compartment, mixture versus alone” value ([3]; Caco-2 AP to BL, 2 h, 500 μM) was “about 3.5 fold”. The “Transport rate across Caco-2 monolayer” value ([3]; in mixture with other lupin peptides (P3, P7), Caco-2 AP to BL, 500 μM) was 8.9 ± 0.4 ng/(mL × min), the “Amount in the BL compartment at the end of incubation (2 h)” value (from here on “Amount in the BL compartment at the end”) ([3]; tested alone, 500 μM in AP, Caco-2 AP to BL, 2 h, conversion of the μg value) was 0.271 nmol and the “Amount in the BL compartment at the end” value ([3]; tested alone, 500 μM in AP, Caco-2 AP to BL, AP pH 6.0 / BL pH 7.4, 37 °C, 2 h, HPLC-Chip MS, mean ± SD) was 0.3 ± 0.02 µg. For the same compound, the “Amount in the BL compartment after 60 min” value ([3]; tested alone, 500 μM in AP, Caco-2 AP to BL, AP pH 6.0 / BL pH 7.4, 37 °C, HPLC-Chip MS, mean ± SD) was 0.20 ± 0.02 µg, the “Transport rate across Caco-2 monolayer” value ([3]; tested alone, Caco-2 AP to BL, 500 μM) was 1.8 ± 0.3 ng/(mL × min) and the “Amount in the BL compartment at the end” value ([3]; tested in mixture with P3 and P7, each 500 μM in AP, Caco-2 AP to BL, 2 h, conversion of the μg value) was 0.99 nmol. For the same compound, the “Amount in the BL compartment at the end” value ([3]; tested in mixture with P3 and P7, each 500 μM in AP, Caco-2 AP to BL, AP pH 6.0 / BL pH 7.4, 37 °C, 2 h, HPLC-Chip MS, mean ± SD) was 1.1 ± 0.2 µg.
